Measurements as given in ChEMBL document CHEMBL5465560, “Selectivity Literature for EUbOPEN Chemogenomic Library” (2024).
Values belong to the molecule of their own block, whether it stands above or below them.

Columns and labels:
[1] = target: T1, Tyrosine-protein kinase ITK/TSK (Homo sapiens) (UniProt Q08881); details: at 10 µM
T1 sequence (whole entry): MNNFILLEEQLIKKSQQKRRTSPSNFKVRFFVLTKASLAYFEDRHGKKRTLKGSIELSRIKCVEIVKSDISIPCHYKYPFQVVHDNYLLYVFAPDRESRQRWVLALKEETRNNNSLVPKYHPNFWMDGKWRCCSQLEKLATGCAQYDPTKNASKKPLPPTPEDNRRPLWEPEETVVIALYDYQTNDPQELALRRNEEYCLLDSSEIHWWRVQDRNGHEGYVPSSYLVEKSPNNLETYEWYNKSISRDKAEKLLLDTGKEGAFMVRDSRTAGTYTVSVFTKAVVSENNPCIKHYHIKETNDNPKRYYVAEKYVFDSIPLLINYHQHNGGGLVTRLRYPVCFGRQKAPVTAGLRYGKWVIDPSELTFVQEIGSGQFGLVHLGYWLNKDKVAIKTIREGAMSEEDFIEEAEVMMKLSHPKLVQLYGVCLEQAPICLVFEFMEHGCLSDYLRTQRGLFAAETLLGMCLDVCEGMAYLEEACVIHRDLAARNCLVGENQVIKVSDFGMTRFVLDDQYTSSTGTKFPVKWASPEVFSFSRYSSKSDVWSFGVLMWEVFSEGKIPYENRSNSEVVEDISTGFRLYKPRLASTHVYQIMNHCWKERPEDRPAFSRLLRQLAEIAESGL

[2] = target: Bromodomain-containing protein 4 (Homo sapiens, UniProt O60885); assay: Selectivity interaction (Bromodomain panel (DSF asssay)) EUB0000270b BRD4
[3] = target: T2, Dual serine/threonine and tyrosine protein kinase (Homo sapiens) (UniProt Q6XUX3); assay: Selectivity interaction (KinomeScan (DiscoverX)) EUB0001049a DSTYK; details: at 1 µM
T2 sequence (whole entry): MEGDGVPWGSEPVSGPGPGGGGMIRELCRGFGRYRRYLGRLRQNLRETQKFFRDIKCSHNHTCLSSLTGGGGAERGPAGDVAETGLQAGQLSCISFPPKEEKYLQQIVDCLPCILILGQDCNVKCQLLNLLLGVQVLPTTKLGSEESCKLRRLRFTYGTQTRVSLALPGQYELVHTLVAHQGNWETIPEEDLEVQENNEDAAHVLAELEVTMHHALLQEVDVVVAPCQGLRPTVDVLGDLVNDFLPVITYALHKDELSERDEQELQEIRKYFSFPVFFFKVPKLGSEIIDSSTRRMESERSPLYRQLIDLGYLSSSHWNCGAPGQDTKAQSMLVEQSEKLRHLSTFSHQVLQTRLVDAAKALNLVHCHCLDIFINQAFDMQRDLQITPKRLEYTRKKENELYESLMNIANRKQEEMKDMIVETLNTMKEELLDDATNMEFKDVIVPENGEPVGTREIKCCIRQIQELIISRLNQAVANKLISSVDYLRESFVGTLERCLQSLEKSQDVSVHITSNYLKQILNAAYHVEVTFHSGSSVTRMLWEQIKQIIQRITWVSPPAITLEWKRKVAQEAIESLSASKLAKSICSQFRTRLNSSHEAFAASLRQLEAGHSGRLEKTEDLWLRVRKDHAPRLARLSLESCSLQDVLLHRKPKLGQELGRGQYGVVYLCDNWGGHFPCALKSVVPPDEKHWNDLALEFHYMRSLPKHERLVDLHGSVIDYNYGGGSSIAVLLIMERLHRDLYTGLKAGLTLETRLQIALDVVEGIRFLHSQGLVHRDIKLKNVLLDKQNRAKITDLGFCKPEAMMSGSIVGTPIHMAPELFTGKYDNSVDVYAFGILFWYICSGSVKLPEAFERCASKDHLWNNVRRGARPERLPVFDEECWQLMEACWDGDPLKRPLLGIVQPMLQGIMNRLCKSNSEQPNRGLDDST

[4] = target: T3, Serine/threonine-protein kinase LATS1 (Homo sapiens) (UniProt O95835); assay: Selectivity interaction (KinomeScan (DiscoverX)) EUB0000666a LATS1; details: at 10 µM
T3 sequence (whole entry): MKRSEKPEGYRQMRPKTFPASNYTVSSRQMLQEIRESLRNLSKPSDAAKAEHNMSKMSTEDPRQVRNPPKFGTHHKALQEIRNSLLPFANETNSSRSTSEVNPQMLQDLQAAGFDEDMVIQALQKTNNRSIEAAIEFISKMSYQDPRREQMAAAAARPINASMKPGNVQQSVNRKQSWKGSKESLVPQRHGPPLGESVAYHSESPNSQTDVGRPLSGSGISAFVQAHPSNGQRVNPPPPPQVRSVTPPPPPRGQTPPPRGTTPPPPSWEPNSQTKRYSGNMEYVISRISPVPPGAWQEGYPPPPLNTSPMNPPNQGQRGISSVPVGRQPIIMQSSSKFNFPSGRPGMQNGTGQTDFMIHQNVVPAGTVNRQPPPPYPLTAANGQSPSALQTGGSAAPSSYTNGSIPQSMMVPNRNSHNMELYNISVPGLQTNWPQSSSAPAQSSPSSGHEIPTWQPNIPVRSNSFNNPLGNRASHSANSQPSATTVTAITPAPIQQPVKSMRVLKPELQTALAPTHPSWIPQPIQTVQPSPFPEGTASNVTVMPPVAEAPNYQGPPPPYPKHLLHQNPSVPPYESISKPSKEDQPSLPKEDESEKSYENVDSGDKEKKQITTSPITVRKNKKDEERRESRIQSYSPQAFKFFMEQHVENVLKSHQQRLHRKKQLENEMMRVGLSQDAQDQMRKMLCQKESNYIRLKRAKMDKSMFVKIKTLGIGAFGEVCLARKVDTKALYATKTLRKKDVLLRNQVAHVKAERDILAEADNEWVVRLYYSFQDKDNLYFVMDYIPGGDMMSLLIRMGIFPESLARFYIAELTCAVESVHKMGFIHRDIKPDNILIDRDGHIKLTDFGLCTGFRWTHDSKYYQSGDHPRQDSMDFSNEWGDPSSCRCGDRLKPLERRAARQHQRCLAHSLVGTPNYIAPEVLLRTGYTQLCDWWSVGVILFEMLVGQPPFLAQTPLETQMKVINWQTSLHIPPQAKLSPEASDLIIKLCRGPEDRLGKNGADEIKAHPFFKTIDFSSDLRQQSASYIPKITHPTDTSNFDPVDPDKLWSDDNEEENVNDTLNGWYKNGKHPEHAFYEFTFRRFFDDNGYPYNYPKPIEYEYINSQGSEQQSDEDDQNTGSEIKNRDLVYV

[5] = target: Mitogen-activated protein kinase kinase kinase 20 (Homo sapiens) (UniProt Q9NYL2); assay: Selectivity interaction (KinomeScan (DiscoverX)) EUB0000666a MAP3K20; details: at 10 µM
[6] = target: Phosphatidylinositol 3-kinase catalytic subunit type 3 (Homo sapiens, UniProt Q8NEB9); assay: Selectivity interaction (KinomeScan (DiscoverX)) EUB0000695a PIK3C3; details: at 100 nM
Sequence of Phosphatidylinositol 3-kinase catalytic subunit type 3 (Q8NEB9 whole entry): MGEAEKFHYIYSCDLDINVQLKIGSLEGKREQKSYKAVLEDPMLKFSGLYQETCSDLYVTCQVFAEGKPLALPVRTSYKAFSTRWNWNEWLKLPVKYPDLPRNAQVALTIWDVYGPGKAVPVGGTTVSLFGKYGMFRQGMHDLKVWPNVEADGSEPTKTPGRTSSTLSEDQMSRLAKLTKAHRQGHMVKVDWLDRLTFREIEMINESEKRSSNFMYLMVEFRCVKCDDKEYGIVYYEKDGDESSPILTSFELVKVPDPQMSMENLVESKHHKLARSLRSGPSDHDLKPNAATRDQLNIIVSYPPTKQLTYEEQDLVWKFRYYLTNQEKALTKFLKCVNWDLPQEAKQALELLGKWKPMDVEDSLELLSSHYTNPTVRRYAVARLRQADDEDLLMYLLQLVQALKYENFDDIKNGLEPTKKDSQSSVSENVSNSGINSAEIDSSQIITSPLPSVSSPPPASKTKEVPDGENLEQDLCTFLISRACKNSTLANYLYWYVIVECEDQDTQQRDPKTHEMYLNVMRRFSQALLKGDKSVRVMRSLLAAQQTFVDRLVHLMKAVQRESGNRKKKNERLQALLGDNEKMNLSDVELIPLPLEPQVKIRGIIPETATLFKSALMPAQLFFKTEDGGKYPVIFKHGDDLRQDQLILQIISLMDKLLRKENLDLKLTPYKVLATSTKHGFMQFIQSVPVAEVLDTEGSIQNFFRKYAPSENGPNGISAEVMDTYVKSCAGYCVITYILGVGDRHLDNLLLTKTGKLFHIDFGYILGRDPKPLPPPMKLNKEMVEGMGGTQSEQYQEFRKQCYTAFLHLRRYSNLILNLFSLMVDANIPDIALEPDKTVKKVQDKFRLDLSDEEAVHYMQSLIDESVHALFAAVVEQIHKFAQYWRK

Sequence of Mitogen-activated protein kinase kinase kinase 20 (Homo sapiens) (Q9NYL2 2-800 limits assumed): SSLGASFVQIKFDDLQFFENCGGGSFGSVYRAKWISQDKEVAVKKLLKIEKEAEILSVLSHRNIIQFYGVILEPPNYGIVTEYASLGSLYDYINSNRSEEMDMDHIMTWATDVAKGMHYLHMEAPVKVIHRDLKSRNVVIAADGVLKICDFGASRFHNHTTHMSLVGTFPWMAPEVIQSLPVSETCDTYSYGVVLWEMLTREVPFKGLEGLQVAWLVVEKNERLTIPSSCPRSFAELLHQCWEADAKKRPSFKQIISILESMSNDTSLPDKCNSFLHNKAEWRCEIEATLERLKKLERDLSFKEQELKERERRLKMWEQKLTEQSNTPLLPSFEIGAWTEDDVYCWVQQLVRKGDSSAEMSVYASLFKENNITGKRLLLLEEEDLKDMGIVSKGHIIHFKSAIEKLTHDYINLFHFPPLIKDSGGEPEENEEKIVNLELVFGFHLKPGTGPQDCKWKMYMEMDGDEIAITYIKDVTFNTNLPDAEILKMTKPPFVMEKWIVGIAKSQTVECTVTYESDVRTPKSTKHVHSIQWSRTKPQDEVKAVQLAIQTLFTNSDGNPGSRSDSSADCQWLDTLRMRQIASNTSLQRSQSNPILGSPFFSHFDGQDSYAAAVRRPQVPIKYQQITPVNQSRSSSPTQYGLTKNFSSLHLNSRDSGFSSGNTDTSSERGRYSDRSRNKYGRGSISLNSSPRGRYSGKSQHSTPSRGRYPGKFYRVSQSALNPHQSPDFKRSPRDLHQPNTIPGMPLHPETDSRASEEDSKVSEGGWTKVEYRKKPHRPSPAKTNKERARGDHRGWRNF

Compound: COCC(=O)NC/C=C/c1ccc2ncnc(Nc3ccc(Oc4ccc(C)nc4)c(C)c3)c2c1 [CP-724714]
- % of control [1]: 92%

- dTM [2]: -1.68 K
Compound: Cc1cc(CN)cc(C)c1-c1ncn(C)c1-c1cncn1C

Compound: COc1cc(Nc2nc(C)cc(-c3cnn4nc(OC)ccc34)n2)cc(C(F)(F)F)c1
- % of control [3]: 79%

Compound: O=C(NOC[C@H](O)CO)c1ccc(F)c(F)c1Nc1ccc(I)cc1F
- % of control [4]: 100%
- % of control [5]: 88%

Compound: Cc1cc(F)c(C(=O)Nc2cccc(-c3nncn3C(C)C)n2)cc1-n1cnc(C2CC2)c1
- % of control [6]: 88%
